These are literature values, as cited in US9533037B2, “Methods for designing and preparing vaccines comprising directed sequence polymer compositions via the directed expansion of epitopes” (Declion Holdings LLC, priority 2007, dated 2017).

In the data set the test system is MBP83-99. Conditions: limited human trials.

In the case of AKPVVHLFANIVTPRTP, the “immune reactivity against the peptide” value is listed as “long term immune reactivity”. The “clinical efficacy by evaluation using MRI” value (multiple sclerosis) is listed as “clinically ineffective”.
